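Protocol summary: plate cells (96-well), add compound at 5 concentrations, incubate 48 h, interpolate endpoints linearly. GI50: concentration for 50% inhibition of growth. TGI: total growth inhibition.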
Key:
Test in all cases: NCI anticancer screen, dose series, 48 h
[1] = system: HS 578T breast
[2] = system: DU-145 prostate
[3] = system: ACHN renal
[4] = system: OVCAR-8 ovarian
[5] = system: MDA-MB-435
[6] = system: OVCAR-3 ovarian
[7] = system: UO-31 renal
[8] = system: OVCAR-4 ovarian
[9] = system: RPMI-8226 leukemia
[10] = system: SNB-19 CNS
[11] = system: NCI/ADR-RES ovarian
[12] = system: NCI-H522 lung
[13] = system: MOLT-4 leukemia
[14] = system: K-562 leukemia
[15] = system: LOX IMVI melanoma
[16] = system: A549 NSCLC
[17] = system: NCI-H23 lung

Row | Structure (SMILES) | TGI [1] [µM] | TGI [2] [µM] | TGI [3] [µM] | TGI [4] [µM] | TGI [5] [µM] | TGI [6] [µM] | TGI [7] [µM] | TGI [8] [µM] | TGI [9] [µM] | TGI [10] [µM] | TGI [11] [µM] | TGI [12] [µM] | TGI [13] [µM] | TGI [14] [µM] | TGI [15] [µM] | TGI [16] [µM] | TGI [17] [µM] | GI50 [12] [µM] | GI50 [17] [µM]
1 | C=C(C(=O)O)[C@@H]1C[C@@H]2O[C@H]1CC(C)=CCC/C(C)=C/CC[C@@]2(C)O | > 100 | > 100 | > 100 | > 100 | > 100 | > 100 | > 100 | > 100 | > 100 | > 100 | > 100 | > 100 | > 100 | > 100 | > 100 | > 100 | – | – | –
2 | CCCCP(CCCC)(CCCC)=C(C(=O)OC)C(C(=O)OC)=C1SC(C(=O)OC)=C(C(=O)OC)S1 | 43.7 | > 100 | 54.3 | 48.8 | 28.1 | 53.1 | 51.4 | 52.5 | > 100 | 49 | – | 49.6 | 44.5 | – | 28.5 | 40.1 | 45.4 | – | –
3 | CC1(C)C2CCC1(CC(=O)O)C(Cl)C2 (stereo not given) | > 100 | > 100 | > 100 | > 100 | > 100 | > 100 | > 100 | > 100 | > 100 | > 100 | > 100 | > 100 | > 100 | > 100 | > 100 | > 100 | > 100 | – | –
4 | O=C(O)c1cc(Sc2ccc([N+](=O)[O-])c(C(=O)O)c2)ccc1[N+](=O)[O-] | > 100 | > 100 | > 100 | > 100 | > 100 | > 100 | > 100 | > 100 | > 100 | > 100 | > 100 | > 100 | > 100 | > 100 | > 100 | > 100 | > 100 | > 100 | > 100
5 | CN(C(=O)c1cccs1)C(=S)N1CCN(c2ccccc2)CC1 | > 100 | > 100 | > 100 | > 100 | > 100 | > 100 | > 100 | > 100 | > 100 | > 100 | – | > 100 | > 100 | > 100 | > 100 | > 100 | > 100 | – | –
6 | Cc1cccc(NC(=S)N/N=C(/c2ccccc2)c2ccccn2)c1 | 76.1 | 9.34 | 11.8 | 15.4 | 17.6 | 11.9 | 10.4 | 17.2 | > 7.74 | 20 | 6.63 | 14.6 | > 6.59 | 2.84 | 11.5 | 14.3 | 13.9 | – | –
7 | COC(=O)CCC(=O)c1ccc2c(c1)CC1(C2)Cc2ccc3c(c2C1)CCCC3=O (stereo not given) | > 100 | > 100 | > 70.2 | > 100 | 19.9 | 47.7 | > 59.3 | > 74 | – | > 100 | > 100 | > 73.5 | 18.2 | 9.44 | > 100 | > 100 | > 76.5 | – | –
8 | CN1CCN(c2ccc(-n3cc(C(=O)O)c(=O)c4cc(F)c(N5CCN(C)CC5)cc43)nc2)CC1 | > 100 | > 100 | – | > 100 | > 100 | > 100 | > 100 | > 100 | > 100 | > 100 | > 100 | > 100 | > 100 | > 100 | > 100 | > 100 | > 100 | – | –
9 | CC1(C)O[C@@H]2[C@@H]3OC(=O)C[C@@H]3[C@@H](COCc3ccccc3)[C@@H]2O1 | > 100 | > 100 | > 100 | > 100 | > 100 | > 100 | > 100 | > 100 | > 100 | > 100 | > 100 | > 100 | > 100 | > 100 | > 100 | > 100 | > 100 | – | –
10 | CCN(CC)c1nc(N(C)C)c2cc(OC)ccc2n1 | > 100 | > 100 | > 100 | > 100 | > 100 | > 100 | > 100 | > 100 | 61.2 | > 100 | > 100 | 66.9 | 65.1 | > 100 | > 100 | > 100 | > 100 | – | –
11 | Cc1nc2c(ncn2CCO)c(=O)[nH]1 | > 100 | > 100 | > 100 | > 100 | > 100 | > 100 | – | > 100 | – | > 100 | > 100 | > 100 | – | > 100 | > 100 | > 100 | > 100 | – | –
12 | O=C(O)C(F)(OC(F)(F)C(F)(OC(F)(F)C(F)(F)C(F)(F)F)C(F)(F)F)C(F)(F)F (stereo not given) | > 100 | > 100 | > 100 | > 100 | > 100 | > 100 | > 100 | > 100 | > 100 | > 100 | > 100 | > 100 | > 100 | > 100 | > 100 | > 100 | > 100 | – | –
13 | c1ccc2c(c1)C(=Nc1ccc(N=C3c4ccccc4-c4ccccc43)cc1)c1ccccc1-2 | > 100 | > 100 | – | > 100 | > 100 | > 100 | > 100 | > 100 | > 100 | > 100 | > 100 | > 100 | > 100 | > 100 | > 100 | > 100 | > 100 | – | –
14 | CC[C@@]1(O)C(=O)OCc2c1cc1n(c2=O)Cc2c-1nc1ccccc1c2/C=N\NC(=O)C(C)N (stereo not given in full) | > 100 | 0.398 | – | 5.26 | > 100 | > 100 | 2.12 | > 100 | – | 58.7 | 4.26 | 25.8 | 2.08 | – | 0.229 | > 26.5 | 0.847 | – | –
15 | CCCCCC(/C=N/N)C(O)(C(F)(F)F)C(F)(F)F (stereo not given) | 7.12 | 6.09 | > 10 | > 10 | > 10 | > 10 | – | > 10 | > 10 | > 10 | > 10 | > 10 | > 10 | – | 9.49 | > 10 | 9.49 | – | –
16 | CN(C)/C=N/S(=O)(=O)c1nn2c(C=O)c(-c3ccc(-c4ccc([N+](=O)[O-])cc4)o3)nc2s1 | > 21.8 | 26.6 | 8.99 | > 38.8 | 7.41 | 8.41 | 5.99 | > 39.3 | 13.5 | 45.5 | > 96.6 | – | 14.3 | – | > 25 | > 32.8 | 16.2 | – | –
17 | COC1(C)C=NCC(C)(C)NC(=O)C(C)(OC)C=NCC(C)(C)NC1=O (stereo not given) | > 10 | > 10 | > 10 | > 10 | > 10 | – | – | > 10 | > 10 | > 10 | > 10 | > 10 | > 10 | > 10 | – | > 10 | > 10 | – | –
18 | Cc1n[nH]c(=O)n1N1C(=O)c2ccccc2C1=O | > 100 | > 100 | > 100 | > 100 | > 100 | > 100 | > 100 | > 100 | – | > 100 | > 100 | – | > 100 | > 100 | > 100 | > 100 | > 100 | – | –
19 | CCCCOC(=O)C1CN2C(=NC1(C(F)(F)F)C(F)(F)F)Sc1ccccc12 (stereo not given) | > 100 | > 100 | > 100 | > 100 | – | > 100 | > 100 | > 100 | > 100 | > 100 | > 100 | – | 84.6 | > 100 | > 100 | > 100 | > 100 | – | –
20 | O=C1NN(c2ccccc2)C(=O)C2C3c4ccccc4C(c4ccccc43)C12 (stereo not given) | > 100 | > 100 | > 100 | > 100 | > 100 | > 100 | > 100 | > 100 | > 100 | > 100 | > 100 | > 100 | – | > 100 | > 100 | > 100 | > 100 | – | –
21 | CC1(C)OC(=S)N(c2ccccc2)C12C=Cc1cc3ccccc3cc1O2 (stereo not given) | > 100 | > 100 | > 100 | > 100 | > 100 | > 100 | > 100 | > 100 | > 100 | > 100 | > 100 | – | > 100 | > 100 | > 100 | > 100 | > 100 | – | –
22 | CCc1n[nH]c(=O)n1NC(=O)/C=C\C(=O)O | > 100 | > 100 | – | > 100 | > 100 | > 100 | – | > 100 | – | – | > 100 | > 100 | > 100 | > 100 | – | > 100 | > 100 | – | –
23 | [N-]=[N+]=NC1=C(c2ccccc2)C(=O)c2cccc3cccc1c23 | 48.6 | > 100 | – | – | > 100 | > 100 | > 100 | > 100 | > 100 | > 100 | > 100 | – | 21.1 | > 100 | > 100 | > 100 | > 100 | – | –
24 | CCOC(=O)c1cc(-c2ccc(Cl)cc2)c([N+](=O)[O-])n1C | > 10 | > 10 | > 10 | > 10 | > 10 | > 10 | > 10 | > 10 | – | > 10 | – | > 10 | > 10 | > 10 | – | > 10 | > 10 | – | –
25 | OCSc1nn(CO)c(=S)s1 | 42.4 | 57.6 | 68.1 | 32.8 | 34.3 | 48.4 | – | 47 | 70.6 | 59.6 | 45.1 | 35.3 | 51.6 | 43.4 | 40.7 | > 100 | 40.5 | – | –
26 | CC(=O)OC1COC(Nn2c(=O)[nH]c3ccccc3c2=O)C(OC(C)=O)C1OC(C)=O (stereo not given) | > 100 | > 100 | > 100 | > 100 | > 100 | > 100 | > 100 | – | > 100 | > 100 | > 100 | – | > 100 | > 100 | > 100 | > 100 | > 100 | – | –
27 | O=C1C[C@H]2[C@H](c3ccc(Br)cc3)[C@H]3C(=O)c4ccccc4NC(=O)[C@@H]3[C@@]2(O)c2ccccc2N1 | > 100 | > 100 | 97.7 | > 100 | 26.9 | 37 | – | > 100 | 62.4 | > 100 | 61.9 | 69.3 | 25 | 48.9 | 37.1 | > 100 | 38.9 | – | –
28 | Cc1nn(C)c2c1C(=O)N(C)CC(=O)N2C | > 100 | > 100 | > 100 | > 100 | > 100 | > 100 | > 100 | > 100 | > 100 | > 100 | – | > 100 | > 100 | > 100 | – | > 100 | > 100 | – | –
29 | CCOC(=O)C1(Cc2ccccc2)Cc2ccccc2C1=O (stereo not given) | > 100 | > 100 | > 100 | > 100 | 45.3 | > 100 | 57.3 | > 100 | 60.8 | – | 62.8 | – | 57.5 | > 100 | > 100 | > 100 | 69.9 | – | –

— PubChem BioAssay (NCI)
